Assay results: patent US8513275B2 (Salix Pharmaceuticals, Ltd, priority 2010, dated 2013)
“Also recorded” adds a separate entry of the source. Read-outs that look alike come from different tables or passages of the source. Marks after values point to notes of the source that are not given here.

Columns and labels:
[1] = Dynamic vapor sorption (moisture sorption, moisture balance) with post-sorption XRPD; type: physicochemical; conditions: for weight loss from 95 to 5% RH: desorption 95-5% RH; for post-moisture sorption (post-MB / post-DVS) XRPD result: solid after DVS cycle; for weight gain from 5 to 95% RH: sorption 5-95% RH; for overall weight loss in moisture sorption: whole sorption/desorption cycle
Experimental: (§1) Automated vapor sorption (VS) data were collected on a VTI SGA-100 Vapor Sorption Analyzer. NaCl and PVP were used as calibration standards. Samples were not dried prior to analysis. […] The equilibrium criterion used for analysis was less than 0.0100% weight change in 5 minutes with a maximum equilibration time of 3 hours. Data were not corrected for the initial moisture content of the samples.
as §1, with “Automated dynamic” for “Automated”, “(DVS)” for “(VS)”, “hours.” for “hours. Data were not corrected for the initial moisture content of the samples.”

[2] = Relative humidity stressing at ambient temperature, XRPD of stressed solid; type: physicochemical
[3] = VS w/ACN
Experimental: Subsequent characterization of cocrystal 2 was conducted quickly after isolating vapor stressed samples.
The 20-mL vial was capped and left at ambient conditions for vapor stress.

[4] = water slurry, 5 minutes, 3 hours and 7 hours
Experimental: In order to be able to measure the aqueous solubility (equilibrium or kinetic) of a cocrystal, it should remain intact upon exposure to aqueous conditions for some duration. If it dissociates or changes forms quickly upon contact with water, intrinsic dissolution may be introduced as an alternative to solubility, in which dissolution of a pellet of the cocrystal is measured; however, the cocrystal must not change form upon compression.

[5] = 1000 psi, 1 min.
[6] = Properties of the Rifaximin:piperazine cocrystals (summary, Table 12); conditions: summary column of Table 12
[7] = Particle size distributions for Rifaximin forms; type: physicochemical; conditions: for d10: 10% of the total volume of particles less than the indicated size; for d50: 50% of the total volume of particles less than the indicated size; for d90: 90% of the total volume of particles less than the indicated size
[8] = Ambient storage / exposure to ambient conditions, XRPD; type: physicochemical; conditions: for XRPD result after ambient storage: 8 days of ambient storage, large-scale sample
Description: Form θ drying and physical stability evaluation was not formally included in the protocol. […] The initial sample was generated from nitrogen drying of Form ζ. The initial XRPD pattern was acquired utilizing parameters not consistent with the other data acquisition.

[9] = listed as As-Prepared Rifaximin Form κ
[10] = listed as post-drying rifaximin Form κ

Question: With `C1CNCCN1.COC1C=COC2(C)Oc3c(C)c(O)c4c(O)c(c5c(nc6cc(C)ccn65)c4c3C2=O)NC(=O)C(C)=CC=CC(C)C(O)C(C)C(O)C(C)C(OC(C)=O)C1C.COC1C=COC2(C)Oc3c(C)c(O)c4c(O)c(c5c(nc6cc(C)ccn65)c4c3C2=O)NC(=O)C(C)=CC=CC(C)C(O)C(C)C(O)C(C)C(OC(C)=O)C1C` (stereo not drawn) [cocrystal 1, rifaximin:piperazine cocrystal 1] as the molecule, how does the “hygroscopicity by DVS” value [1] read?
Answer: quite hygroscopic

Question: And the “weight loss from 95 to 5% RH” value ([1]; listed as sample 4)?
Answer: 11.47% weight loss from 95-5% RH

Question: What about the “weight loss upon equilibration at 5% RH” value ([1]; initial equilibration at 5% RH) of the same molecule?
Answer: 3.54% weight loss at 5% RH

Question: What about the “post-moisture sorption (post-MB / post-DVS) XRPD result” value [1] of the same molecule?
Answer: broad peaks, similar to cocrystal 1 with additional peaks at approximately 5 and 17°2θ; also recorded: broad peaks, similar to cocrystal 1 plus peaks at approximately 5 and 17°2θ

Question: And the “post-moisture sorption (post-MB / post-DVS) XRPD result” value ([1]; listed as Cocrystal 1)?
Answer: conversion to a material similar to cocrystal 1 plus two additional peaks

Question: And the “weight gain from 5 to 95% RH” value ([1]; listed as sample 4)?
Answer: 10.78% weight gain from 5-95% RH

Question: What about the “XRPD result after RH stress” value ([2]; ~75% RH, 1 week) of the same molecule?
Answer: broad peaks, similar to cocrystal 1+ peak at ˜5°2θ

Question: And the “XRPD result after RH stress” value ([2]; ~75% RH, 1 week, listed as Cocrystal 1)?
Answer: broad peaks, similar to cocrystal 1 with an additional peak at approximately 5°2θ

Question: What about the “XRPD result after RH stress” value ([2]; ~75% RH, 2 weeks) of the same molecule?
Answer: broad peaks, similar to cocrystal 1+ peak at ˜5°2θ

Question: And the “XRPD result after RH stress” value ([2]; ~75% RH, 2 weeks, listed as Cocrystal 1)?
Answer: broad peaks, similar to cocrystal 1 with an additional peak at approximately 5°2θ

Question: And the “XRPD result after RH stress” value ([2]; ~75% RH, 3 days)?
Answer: broad peaks, similar to cocrystal 1+ peak at ˜5°2θ

Question: And the “XRPD result after RH stress” value ([2]; ~75% RH, 3 days, listed as Cocrystal 1)?
Answer: broad peaks, similar to cocrystal 1 with an additional peak at approximately 5°2θ

Question: What about the “XRPD result after RH stress” value ([2]; ~97% RH, 1 week, listed as Cocrystal 1) of the same molecule?
Answer: Conversion to Rifaximin Form β-1

Question: And the “XRPD result after RH stress” value ([2]; ~97% RH, 1 week, listed as Rifaximin:Piperazine Cocrystal 1)?
Answer: API, Form β-1

Question: And the “XRPD result after RH stress” value ([2]; ~97% RH, 3 days, listed as Cocrystal 1)?
Answer: conversion to Rifaximin Form β-1

Question: And the “XRPD result after RH stress” value ([2]; ~97% RH, 3 days, listed as Rifaximin:Piperazine Cocrystal 1)?
Answer: API, Form β-1

Question: What about the “XRPD result after vapor stress with ACN” value ([3]; 7 days) of the same molecule?
Answer: conversion to cocrystal 2

Question: And the “XRPD result after vapor stress with ACN” value ([3]; 7 days, listed as Cocrystal 1)?
Answer: Cocrystal 2 resulted by XRPD

Question: And the “XRPD result after vapor stress with ACN” value ([3]; 7 days, listed as Rifaximin:Piperazine Cocrystal 1)?
Answer: cocrystal 2^c

Question: And the “XRPD result after vapor stress with ACN” value ([3]; 24 days, sample stood capped at ambient approx. 5-6 hours before XRPD)?
Answer: gave cocrystal 1 by XRPD

Question: What about the “XRPD result after vapor stress with ACN” value ([3]; 24 days, sample stood capped at ambient approx. 5-6 hours before XRPD, listed as Rifaximin:Piperazine Cocrystal 1) of the same molecule?
Answer: cocrystal 1^b

Question: What about the “XRPD result after slurrying in water” value ([4]; listed as Rifaximin:Piperazine Cocrystal 1) of the same molecule?
Answer: API, Form β-1

Question: And the “XRPD result after slurrying in water” value ([4]; listed as Rifaximin:piperazine cocrystal 1)?
Answer: conversion to Rifaximin Form β-1

Question: What about the “XRPD result after compression” value [5] of the same molecule?
Answer: additional peaks at approximately 5 and 17°2θ were observed by XRPD, and the material was low crystalline

Question: And the “Properties (hygroscopicity, stability)” value [6]?
Answer: likely falls apart upon heating; also recorded: hygroscopic

Question: Which “weight loss from 95 to 5% RH” value [1, 9] does the source give for `CO[C@H]1/C=C/O[C@@]2(C)Oc3c(C)c(O)c4c(O)c(c5c(nc6cc(C)ccn65)c4c3C2=O)NC(=O)/C(C)=C\C=C\[C@H](C)[C@H](O)[C@@H](C)[C@@H](O)[C@@H](C)[C@H](OC(C)=O)[C@@H]1C` [Form κ, rifaximin] here?
Answer: 12% wt loss from 95 to 5% RH.

Question: What about the “weight loss from 95 to 5% RH” value ([1]; listed as rifaximin Form κ) of the same molecule?
Answer: 12%

Question: What about the “weight loss upon equilibration at 5% RH” value ([1]; initial equilibration at 5% RH, listed as As-Prepared Rifaximin Form κ) of the same molecule?
Answer: 7.5% wt loss upon equilibration at 5% RH

Question: What about the “weight loss upon equilibration at 5% RH” value ([1]; initial equilibration at 5% RH, listed as rifaximin Form κ) of the same molecule?
Answer: 7.5%

Question: What about the “post-moisture sorption (post-MB / post-DVS) XRPD result” value [1, 9] of the same molecule?
Answer: Disordered

Question: And the “post-moisture sorption (post-MB / post-DVS) XRPD result” value ([1]; listed as rifaximin Form κ)?
Answer: disordered

Question: And the “weight gain from 5 to 95% RH” value [1, 9]?
Answer: 4.6% wt gain from 5 to 95% RH

Question: What about the “weight gain from 5 to 95% RH” value ([1]; listed as rifaximin Form κ) of the same molecule?
Answer: 4.6%

Question: And the “overall weight loss in moisture sorption” value [1, 9]?
Answer: Overall wt loss = 14. 9% (equivalent to ~2 moles of IPA)

Question: And the “overall weight loss in moisture sorption” value ([1]; listed as rifaximin Form κ)?
Answer: approximately 14.9%

Question: And the d10 [7]?
Answer: 15.551 μm

Question: What about the d50 [7] of the same molecule?
Answer: 90.684 μm

Question: What about the d90 [7] of the same molecule?
Answer: 225.815 μm

Question: With `CO[C@H]1/C=C/O[C@@]2(C)Oc3c(C)c(O)c4c(O)c(c5c(nc6cc(C)ccn65)c4c3C2=O)NC(=O)/C(C)=C\C=C\[C@H](C)[C@H](O)[C@@H](C)[C@@H](O)[C@@H](C)[C@H](OC(C)=O)[C@@H]1C` [η, rifaximin] as the molecule, how does the d10 [7] read?
Answer: 3.857 μm

Question: What about the d50 [7] of the same molecule?
Answer: 79.844 μm

Question: And the d90 [7]?
Answer: 290.353 μm

Question: Which results are given for `CO[C@H]1/C=C/O[C@@]2(C)Oc3c(C)c(O)c4c(O)c(c5c(nc6cc(C)ccn65)c4c3C2=O)NC(=O)/C(C)=C\C=C\[C@H](C)[C@H](O)[C@@H](C)[C@@H](O)[C@@H](C)[C@H](OC(C)=O)[C@@H]1C` [As received, rifaximin]?
Answer: d10 [7]: 0.399 μm; d50 [7]: 8.629 μm; d90 [7]: 33.891 μm

Question: Which results are given for `CO[C@H]1/C=C/O[C@@]2(C)Oc3c(C)c(O)c4c(O)c(c5c(nc6cc(C)ccn65)c4c3C2=O)NC(=O)/C(C)=C\C=C\[C@H](C)[C@H](O)[C@@H](C)[C@@H](O)[C@@H](C)[C@H](OC(C)=O)[C@@H]1C` [Post-Drying Rifaximin Form κ, rifaximin]?
Answer: weight loss from 95 to 5% RH [1]: 11.0% wt lost from 95%-5% RH; weight loss from 95 to 5% RH [1, 10]: 11%; weight loss upon equilibration at 5% RH ([1]; initial equilibration at 5% RH): 0.1% wt loss upon equilibration at 5% RH; weight loss upon equilibration at 5% RH ([1]; initial equilibration at 5% RH, listed as post-drying rifaximin Form κ): 0.1%; post-moisture sorption (post-MB / post-DVS) XRPD result [1]: Disordered κ; post-moisture sorption (post-MB / post-DVS) XRPD result [1, 10]: disordered; weight gain from 5 to 95% RH [1]: 7.7% wt gain from 5%-95% RH; weight gain from 5 to 95% RH [1, 10]: 7.7%; overall weight loss in moisture sorption [1]: approximately 3.3%; XRPD result after humidity stress ([2]; 84% RH, RT, 19 days): Disordered κ

Question: For `CO[C@H]1/C=C/O[C@@]2(C)Oc3c(C)c(O)c4c(O)c(c5c(nc6cc(C)ccn65)c4c3C2=O)NC(=O)/C(C)=C\C=C\[C@H](C)[C@H](O)[C@@H](C)[C@@H](O)[C@@H](C)[C@H](OC(C)=O)[C@@H]1C` [Form θ, rifaximin], which “weight loss from 95 to 5% RH” value ([1]; listed as Rifaximin Form θ) is on record?
Answer: 5.826% wt lost from 95%-5% RH

Question: What about the “weight loss from 95 to 5% RH” value ([1]; listed as rifaximin Form θ) of the same molecule?
Answer: 5.8%

Question: And the “weight loss upon equilibration at 5% RH” value ([1]; initial equilibration at 5% RH, listed as rifaximin Form θ)?
Answer: 7.3%

Question: What about the “wt change upon equilibration at 5% RH” value ([1]; signed change, initial equilibration at 5% RH) of the same molecule?
Answer: −7.314% wt change upon equilibration at 5% RH

Question: And the “post-moisture sorption (post-MB / post-DVS) XRPD result” value ([1]; listed as Rifaximin Form θ)?
Answer: ι

Question: What about the “post-moisture sorption (post-MB / post-DVS) XRPD result” value ([1]; listed as rifaximin Form θ) of the same molecule?
Answer: Form ι; also recorded: Form t

Question: And the “weight gain from 5 to 95% RH” value ([1]; listed as Rifaximin Form θ)?
Answer: 5.733% wt gain from 5%-95% RH

Question: What about the “weight gain from 5 to 95% RH” value ([1]; listed as rifaximin Form θ) of the same molecule?
Answer: 5.7%

Question: And the “overall weight loss in moisture sorption” value ([1]; listed as rifaximin Form θ)?
Answer: approximately 7.4%

Question: What about the “XRPD result after ambient storage” value [8] of the same molecule?
Answer: remained Form θ

Question: And the “XRPD result after ambient storage” value ([8]; listed as Rifaximin Form θ)?
Answer: θ (after 8 days of ambient storage)

Question: What about the “XRPD result on reanalysis” value ([8]; reanalyzed within hours, nitrogen-dried sample) of the same molecule?
Answer: conversion to Form ι

Question: Which “behaviour upon exposure to ambient conditions” value [8] does the source give for `C1CNCCN1.CC#N.COC1C=COC2(C)Oc3c(C)c(O)c4c(O)c(c5c(nc6cc(C)ccn65)c4c3C2=O)NC(=O)C(C)=CC=CC(C)C(O)C(C)C(O)C(C)C(OC(C)=O)C1C.COC1C=COC2(C)Oc3c(C)c(O)c4c(O)c(c5c(nc6cc(C)ccn65)c4c3C2=O)NC(=O)C(C)=CC=CC(C)C(O)C(C)C(O)C(C)C(OC(C)=O)C1C` (stereo not drawn) [cocrystal 2, rifaximin:piperazine cocrystal 2] here?
Answer: rapidly desolvates

Question: What about the “form conversion after exposure to ambient conditions” value ([8]; longer exposure (ex. 12 days)) of the same molecule?
Answer: conversion to material similar to cocrystal 1, but exhibiting broad peaks with additional peaks at approximately 5 and 17°2θ

Question: And the “form conversion after exposure to ambient conditions” value ([8]; relatively short exposure (ex. 5-6 hours))?
Answer: convert to cocrystal 1
